Data reported in patent US5599839A, “Antiviral composition” (The United States of America as represented by the …, priority 1995, dated 1997).
Read-outs that look alike come from different tables or passages of the source.

Columns and labels:
CEM-SS cells [1] = type: cell-based, human
Excerpt: (§1) Cancer Inst. […] Cancer Inst. 81:1254-1258, (1989)] but with several modifications.
(§2) Philadelphia: Lippincott, 1988, pp. 305-317; Weislow et al.: J. Nat. Cancer Inst. […] Cancer Inst. 81:1254-1258, (1989)].

[2] = tested on: HIV-1 (RF variant) in CEM-SS cells; assay: XTT-tetrazolium anti-HIV assay (HIV-1-infected CEM-SS cells); type: cell-based; settings: 50 nM
Excerpt: as §1, §2

C3H10T1/2 cells [3] = assay: Release of [3H]arachidonic acid metabolites in C3H10T1/2 cells; type: cell-based; settings: Mus musculus, C3H 10T1/2, read-out: Half-maximally effective concentration, release of arachidonic acid metabolites
Excerpt: (§3) Well-characterized biological responses to the phorbol esters include inhibition of binding of epidermal growth factor and release of arachidonic acid metabolites [Dell'Aquila et al.: Cancer Res. 48:3702-3708, (1988)].

C3H10T1/2 cells [4] = assay: Inhibition of 125I-epidermal growth factor binding in C3H10T1/2 cells; type: cell-based
Excerpt: as §3

CEM-SS cells [5] = assay: in vitro; settings: HIV-1-infected, prostratin-treated (FIG. 4)
Protocol: (§4) Trypan blue dye exclusion was employed for secondary evaluation of drug toxicity and antiviral protection over time. A 50 μl aliquot of cells was removed from each test well and mixed with 100 μl of 0.4% trypan blue. The percentage of viable cells was determined microscopically by direct hemocytometer counts.

in vitro = settings: human, cem-ss cells
Protocol: as §4

HIV-1 p24 = assay: microbe, parasite or virus in culture; settings: Human immunodeficiency virus 1, 144 h, read-out: Concentration at which p24 viral antigen production is strikingly inhibited (as low as)
Protocol: (§5) The XTT-tetrazolium anti-HIV assay was performed on crude extracts, chromatographic fractions and pure compounds as previously described [Weislow et al.: J. Nat. Cancer Inst. 81:577-586, (1989) and Gustafson et al.: J. Nat. Cancer Inst. 81:1254-1258, (1989)] but with several modifications. The human T-lymphoblastic cell line CEM-SS [Nara et al.: AIDS Res. Hum. […] Concentrated pellets of CEM-SS cells were incubated with the free virus for 1 hour at 37° C. The cells were then diluted and inoculated into round-bottomed 96-well microtiter plates (Corning) at a density of 5000 cells/well. Test compounds and the appropriate controls were then added to the wells, and the plates were incubated for 6 days. At the end of the incubation period cell growth parameters and HIV-1 activities were determined.
(§6) Aliquots of supernatant fluid from the test wells of the tetrazolium assay were removed prior to the time of XTT addition for quantitation of residual infectious virus using the syncytium assay described by Nara et al. [Nara et al.: AIDS Res. Hum. Retroviruses 3:283:302, (1987)].

[6] = tested on: HIV-1 (RF variant) in CEM-SS cells; assay: microbe, parasite or virus in culture; settings: Human immunodeficiency virus 1, CEM-SS, 144 h, read-out: Concentration at which syncytium formation (infectious virions) is strikingly inhibited (as low as)
Protocol: as §5, §6

[7] = cited from earlier work
CEM-SS cells [8] = type: binding, human; settings: for Ki: read-out: Ki, inhibition of [3H]PDBu binding to CEM cells
Protocol: (§7) Incubation was for 30 min at 37° C., after which the cells were chilled, an aliquot removed to determine total counts, and bound counts determined by filtration.
Binding affinities of phorbol esters in cells are typically lower than those obtained with reconstituted protein kinase C [Blumberg et al.: in Mechanism of Tumor Promotion, Vol. 3. Tumor Promotion and Cocarcinogenesis in vitro, (Slaga T. J., ed.) Boca Raton, Fla.: CRC Press, 1984, pp. 143-184], presumably reflecting the role of cellular calcium and phospholipid composition on binding [Konig et al.: J. Cell. Biochem. 7:255-265, (1985)]. […] The usual binding protocol were cells omits serum, because of reportedly variable effects of serum on binding [Blumberg et al.: in Mechanism of Tumor Promotion, Vol. 3. Tumor Promotion and Cocarcinogenesis in vitro, (Slaga T. J., ed.) Boca Raton, Fla.: CRC Press, 1984, pp. 143-184].

protein kinase C = assay: [3H]PDBu binding to partially purified protein kinase C; settings: read-out: Ki, competition of [3H]PDBu binding to protein kinase C; for comparison; mean±range, 2 experiments
Protocol: as §7

## CCCCCCCCCCCCCC(=O)O[C@@H]1[C@@H](C)[C@@]2(O)[C@@H](C=C(CO)C[C@]3(O)C(=O)C(C)=C[C@@H]23)[C@@H]2C(C)(C)[C@]12OC(C)=O [PMA, phorbol 12-myristate 13-acetate, reference compound]
CEM-SS cells [1]; 50 nM
  Cytostatic effect: cytostatic
[2]
  Protection against HIV-1: protective against HIV-1

## CC(=O)O[C@@]12C[C@@H](C)[C@@]3(O)[C@@H](C=C(CO)C[C@]4(O)C(=O)C(C)=C[C@@H]34)[C@@H]1C2(C)C [prostratin]
C3H10T1/2 cells [3]
  EC50: 1100 nM
C3H10T1/2 cells [4]
  Inhibition of binding of epidermal growth factor: induces both of these responses
CEM-SS cells [5]
  Cell viability, infected cultures: greater than 90%
In vitro
  viability: > 90%
CEM-SS cells [1]; 1.0-200 μg/ml, uninfected CEM-SS, 6 days
  Growth-inhibitory (cytostatic) effect on uninfected control cultures: marked growth-inhibitory, or cytostatic, effect
HIV-1 p24
  minimal effective concentration: ≤ 1 µg/mL
[6]
  minimal effective concentration: ≤ 1 µg/mL
[7]; general statement, no test described
  Tumor promoting activity: substantially lacks tumor promoting activity
[7]; reported, Zayed et al. 1977
  Tumor promoting activity: not a tumor promoter
CEM-SS cells [8]; 10% fetal calf serum, one experiment
  Ki: 190 nM
CEM-SS cells [8]; without serum, 30 min at 37° C, mean±range, 2 experiments
  Ki: 210 ± 30 nM

## CCCC(=O)O[C@@H]1[C@@H](C)[C@@]2(O)[C@@H](C=C(CO)C[C@]3(O)C(=O)C(C)=C[C@@H]23)[C@@H]2C(C)(C)[C@]12OC(=O)CCC [PDBu, phorbol 12,13-dibutyrate, reference compound]
C3H10T1/2 cells [3]
  EC50: 24 nM

## CC1=C[C@H]2[C@@]3(O)[C@H](C)C[C@]4(OC(=O)C(C)C)[C@H]([C@@H]3C=C(CO)C[C@]2(O)C1=O)C4(C)C [12-deoxyphorbol 13-isobutyrate]
Protein kinase C
  Ki: 2.1 ± 0.1 nM

## [^3 H]phorbol 12,13-dibutyrate [[^3 H]PDBu, reference compound]
CEM-SS cells [8]; mean±range, 2 experiments
  Bmax in CEM-SS cells: 1.2±0.1 pmol/mg protein
CEM-SS cells [8]; mean±range, 2 experiments, read-out: Binding affinity in CEM-SS cells
  Kd: 4.9 ± 0.8 nM
